This is an account of results in patent US11542316B2, “S-Arrestin peptides and therapeutic uses thereof” (APITOPE INTERNATIONAL NV, priority 2017, dated 2023).

Ends that are not written are not given here.

Data set [1] has as its system SAg-specific hybridoma cells / T cell line with VAVY APC. Briefly: Antigen Processing Independent Presentation System (APIPS) assay, fresh or fixed VAVY APC. The format is cell-based, DR3 mice. To be noted: DR3 hybridoma clone (IL-2, 48 h) or T cell line (IFN-γ, 24 h). The gist of the method:
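SAg-specific hybridomas (5×10^4) or peptide-restimulated T cell lines from immunized DR3 mice were cultured with fresh or 0.5% paraformaldehyde-fixed (5 min, RT) VAVY APCs and peptide (10 or 25 μg/ml). Read-out: IL-2 ELISA at 48 h for hybridomas, IFN-γ ELISA at 24 h for T cell lines.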

Data set [2] is described as follows: Solubility of peptides. The class given is physicochemical. The procedure: The solubility of potential apitopes from S—Ag are determined by visual observations and turbidity measurement by UV spectrophotometry at 280 nm. The solubility of the peptides can be modified by adding amino acids ‘GKK’ or ‘KKK’ (or similar) on both the C- and N-terminus of the sequence. Modifications that may be suitable are described in WO2014/072958 (which is hereby incorporated by reference).
For some of these peptides, the parental peptides were insoluble, and solubility is a critical parameter for them to work as a tolerogenic peptide. Several end-terminal modifications can be used and as example used here they were improved by addition of 3 lysines before and after the original peptide sequence (labelled as ‘-KKK’ versions).

Take “KKKVIFKKISRDKSVTIYLGKKK-NH2 [HIP-115NE3-KKK]”: the “behaves as apitope (response to peptide presented by fresh or fixed APC)” value (from here on “behaves as apitope”) in data set [1] is “behave as apitopes”. Further, the solubility entry in data set [2] is “soluble”.
Turning to “LPLLANNRERRGIA-NH2 [HIP-24HM3, LPLLANNRERRGIA]”, the “behaves as apitope” value in data set [1] was “behave as apitopes”. Further, the solubility entry in data set [2] is on record as “soluble”.
With “KKKAFVEQVANVVLKKK-NH2 [HIP-9K1-KKK, KKKAFVEQVANVVLKKK]”, the solubility entry in data set [2] is “soluble”.
“LTKTLTLLPLLANNRERR-NH2 [HIP-24DG, LTKTLTLLPLLANNRERR]”: in data set [1], the “behaves as apitope” value is recorded as “behave as apitopes”. The solubility entry in data set [2] was “soluble”.
Consider KKKLTFRRDLYFSRVQVYKKK-NH2 [HIP-17J-KKK], for which, in data set [1], the “behaves as apitope” value is reported as “behave as apitopes”.
As for “VIFKKISRDKSVTIYLG-NH2 [HIP-115NE3, VIFKKISRDKSVTIYLG]”, in data set [1], the “behaves as apitope” value was “behave as apitopes”. Further, the solubility entry in data set [2] is recorded as “insoluble”.
